Target: T1, Intermediate-conductance Ca2+-activated K+ channels (IK channels) (Homo sapiens, UniProt O15554)
T1 construct: expressed in transfected cells
Experiment: Whole-cell patch-clamp recording of ionic current through IK channels stably expressed in HEK293 cells
Assay type: cell-based
Conditions: hIK in HEK293 cells, voltage-ramps -100 to +100 mV, free Ca2+ 100 nM, room temperature
Procedure: In this experiment the ionic current through Intermediate-conductance Ca^2+-activated K^+channels (IK channels) is recorded in the whole-cell mode of the patch-clamp technique.
Intermediate-conductance Ca^2+-activated K^+ channels (IK channels) have been cloned from human placenta and stably expressed in HEK293 cells.
Human IK (hIK) was excised from pT3T7 (GenBank Acc. No. N56819) using EcoR I and Not I and sub-cloned into the mammalian expression vector pNS1Z (NeuroSearch), a custom designed derivative of pcDNA3Zeo (InVitrogen) to give the plasmid construct pNS1Z13 hIK. HEK293 tissue culture cells were grown in DMEM (Dulbecco's Modified Eagle Medium) supplemented with 10% FCS (foetal calf serum) at 37° C. in 5% CO2. […]
Experiments are carried out on one of several patch-clamp set-ups. […] Data are stored directly on the hard-disk and analysed by the IGOR software (Wavemetrics, Lake Oswega, Oreg., USA).
The whole-cell configuration of the patch clamp technique is applied. […] Cell capacitance is electronically compensated and the resistance between the pipette and the cell interior (the series resistance, Rs) is measured and compensated for. […]
The intracellular (pipette) solution has the following composition (conc. in mM): 144 KCl, 10 EGTA, 1.4 MgCl2, 5.17 CaCl2, and 10 HEPES (pH=7.2). The calculated free concentration of Ca^2+ in this solution is 100 nM and that of Mg^2+ is 1 mM. […]

Structure (SMILES)	SC100 (Stimulating Concentration required to induce a 100% increase (doubling) in the basal current) [µM]
ON=C1c2ccccc2-c2ccccc21 [9H-9-fluorenone-oxime]	0.08
c1ccc2c(c1)[nH]c1ccccc12 [Carbazole, carbazole]	0.2

Reference: patent US6525043B2, “Use of ion channel modulating agents” (NeuroSearch A/S, priority 1999, dated 2003)
